Assays:
[1] = tested on: ASK1-MKK4/7-JNK3 signaling cascade; assay: In cell JNK3 activation assay (co-expression with HA-ASK1 and HA-JNK3α2, phospho-JNK Western blot); assay type: cell-based, African green monkey; conditions: for JNK3 phosphorylation in cells, YFP fusions: YFP fusions co-expressed with JNK3 and ASK1 in COS7 cells
Method: (§1) COS-7 African green monkey cells were maintained in DMEM supplemented with 10% heat-inactivated FBS (Invitrogen), penicillin, and streptomycin at 37° C. in a humidified incubator with 5% CO2. The cells were plated at 80-90% confluence and transfected using Lipofectamine 2000 (Invitrogen) according to the manufacturer's instructions. Cells were used 48 h post-transfection and serum-starved overnight before experiments.
COS-7 cells were incubated with phosphatase inhibitors (50 mM NaF and 10 mM Na3VO4) in serum-free medium for 15 min at 37° C.; washed with cold PBS; and lysed with SDS lysis buffer containing 1% SDS, 10 mM Tris (pH7.4), 10 mM NaF, 100 μM Na3VO4, 2 mM EDTA, 2 mM benzamidine and 1 mM PMSF. JNKs activity was assayed by Western blotting using an antibody specific for phosphorylated JNK to detect phosphorylated (active) JNKs^17,20,23. Whole cell lysates were boiled for 5 min and centrifuged at 10,000×g for 10 min, and the supernatants were used for Western blotting. Protein was measured using the Bio-Rad Coomassie Blue assay. The proteins were resolved on 8% SD S-PAGE and transferred to PVDF membrane (Millipore, Bedford, Mass.). Blots were incubated with the primary antibodies (Cell Signaling Technology, Inc) anti-phospho-JNK, anti-JNK, anti-HA (6E2) (1:1000 to 1:5000), followed by appropriate HRP-conjugated secondary antibodies. Protein bands were detected by enhanced chemiluminescence (ECL, Pierce), followed by exposure to x-ray film. To quantify phospho-JNKs, serial dilutions of anisomycin (1 μg/ml)-stimulated HEK-A cell lysates were used to ensure that all samples were in linear range. The values for these proteins are expressed in arbitrary units.
The JNK3 activation was next tested in cells (See FIG. 7). COS7 cells were transfected with HA-ASK1, HA-JNK3α2, and YFP-arrestin constructs to measure in cell JNK3α2 activation. Phospho-JNK3 is shown as the uppermost band in the Western analysis, and was analyzed by densitometric quantification using Quantity One software (quantification in bottom panel). […] The data were statistically analyzed by ANOVA with protein as the main factor. Significance of the difference from control (p values) is indicated.
In Cell JNK3 Activation Assay COS7 African green monkey cells were sustained in DMEM solution containing 10% heat-inactivated FBS (Invitrogen), penicillin, and streptomycin at 37° C. and 5% CO2. Cells were transfected at 90-100% confluency in 6-well plates with pcDNA3-HA-ASK1 (0.4 ug), pcDNA3-HA-JNK3α2 (0.2 ug), and pcDNA3-Venus arrestin constructs (0.2-0.6 ug) at a 1:2 ratio of DNA:Lipofectamine 2000 (Invitrogen). At 48 hrs post-transfection, the cells were incubated with phosphatase inhibitors (20 mM NaF and 1 mM Na3VO4) in PBS for 15 mins, washed twice with cold PBS, and lysed using 50 mM Tris (pH 7.8), 2 mM EDTA, 250 mM NaCl, 10% Glycerol, 0.5% NP-40, 2 mM benzamide, and 1 mM PMSF. Protein concentration was measured using the Bio-Rad Quick Start™ Bovine Serum Albumin (BSA) Standard Set. The proteins were subjected to 10% SDS-PAGE and transferred to PVDF membrane (Millipore, Bedford, Mass.). Membranes were incubated with respective primary antibodies (Cell Signaling Technology, Inc.) anti-ASK1 (#3762S), anti-phospho-JNK (#9251), anti-SAPK/JNK (#9252P), anti-GST (#2625), or anti-HA (#3724), followed by the appropriate HRP-conjugated secondary antibodies. Bands were detected by x-ray film using enhanced chemiluminescence (ECL, Pierce) and quantification was done using the software Quantity One (BioRad).

MKK7-JNK3 module [2] = biological target: MKK7-JNK3 module (Homo sapiens, UniProt O14733+P53779); assay: In vitro phosphorylation of JNK3α2 by MKK7 (reconstituted module); assay type: biochemical
Sequence of MKK7-JNK3 module (Homo sapiens, UniProt O14733+P53779) (O14733 whole entry): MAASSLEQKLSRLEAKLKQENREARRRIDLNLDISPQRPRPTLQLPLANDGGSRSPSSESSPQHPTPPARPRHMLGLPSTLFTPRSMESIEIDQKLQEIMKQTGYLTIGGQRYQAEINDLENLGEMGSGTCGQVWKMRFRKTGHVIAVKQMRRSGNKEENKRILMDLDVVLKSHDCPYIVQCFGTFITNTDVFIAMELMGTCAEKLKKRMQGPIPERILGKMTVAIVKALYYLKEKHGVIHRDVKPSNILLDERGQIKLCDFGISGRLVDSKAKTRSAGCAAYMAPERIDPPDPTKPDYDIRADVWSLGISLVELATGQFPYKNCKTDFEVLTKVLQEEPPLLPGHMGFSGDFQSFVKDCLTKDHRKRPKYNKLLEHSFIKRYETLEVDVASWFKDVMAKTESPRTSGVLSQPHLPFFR
Sequence of MKK7-JNK3 module (Homo sapiens, UniProt O14733+P53779) (P53779 whole entry): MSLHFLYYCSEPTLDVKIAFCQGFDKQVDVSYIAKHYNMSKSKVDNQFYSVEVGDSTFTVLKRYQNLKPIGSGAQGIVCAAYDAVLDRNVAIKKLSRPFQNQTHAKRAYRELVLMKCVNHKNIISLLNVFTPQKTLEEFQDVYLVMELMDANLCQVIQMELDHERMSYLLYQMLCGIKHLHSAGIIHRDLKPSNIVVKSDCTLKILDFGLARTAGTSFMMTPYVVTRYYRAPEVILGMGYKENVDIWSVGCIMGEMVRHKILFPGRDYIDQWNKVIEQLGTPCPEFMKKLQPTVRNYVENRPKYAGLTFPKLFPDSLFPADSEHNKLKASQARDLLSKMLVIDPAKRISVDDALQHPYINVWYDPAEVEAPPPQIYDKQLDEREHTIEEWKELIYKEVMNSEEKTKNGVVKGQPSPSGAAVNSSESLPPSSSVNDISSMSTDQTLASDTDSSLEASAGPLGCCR
Method: Next, it was tested whether T1A acts as a scaffold facilitating signaling. To this end, experiments used purified proteins, because they provide the most definitive data supporting a direct interaction. As purified ASK1 is not available, MKK4-JNK3 and MKK7-JNK3 modules were reconstituted in the absence and presence of varying concentrations of synthetic purified T1A peptide and measured JNK3 phosphorylation (FIG. 2A). […] This dependence, where signaling is increased at lower scaffold concentrations and decreased at higher, was also found for scaffolding of these modules by full-length arrestin-3^20. It is believed to be a characteristic of simple scaffolds, which act by bringing the enzyme and substrate together, as lower scaffold concentrations make the formation of complete scaffold-enzyme-substrate ternary complexes likely, whereas higher concentrations increase the probability of formation of incomplete enzyme-scaffold and substrate-scaffold binary complexes, suppressing the signaling^25,26. […]
JNK3α2^20,23, and MKK4 and MKK7^17,20 were expressed in E. coli and purified as previously described^40. The effect of arrestin-3 and MBP-T1A on the phosphorylation of JNK3α2 by MKK7 or MKK4 was analyzed by an in vitro kinase assay, as described^19,20. […] Phosphorylated JNK3α2 was visualized by rabbit anti-phospho JNK antibody (Cell Signaling) and the level of JNK phosphorylation was quantified.

MKK4-JNK3 module = assay: JNK3 phosphorylation by co-expressed MKK4 in cells; assay type: cell-based, African green monkey; conditions: YFP-T1A co-expressed with MKK4 in COS7 cells
Method: (§2) To test whether T1A can promote JNK3 phosphorylation by MKKs in cells, MKK4 or MKK7 was co-expressed with YFP-T1A in COS7 cells, using YFP and full-length arrestin-3 as negative and positive controls, respectively (FIG. 2C).
as §1
(§3) COS-7 cells were incubated with phosphatase inhibitors (50 mM NaF and 10 mM Na3VO4) in serum-free medium for 15 min at 37° C.; washed with cold PBS; and lysed with SDS lysis buffer containing 1% SDS, 10 mM Tris (pH7.4), 10 mM NaF, 100 μM Na3VO4, 2 mM EDTA, 2 mM benzamidine and 1 mM PMSF. JNKs activity was assayed by Western blotting using an antibody specific for phosphorylated JNK to detect phosphorylated (active) JNKs^17,20,23. […] Protein was measured using the Bio-Rad Coomassie Blue assay. […] Protein bands were detected by enhanced chemiluminescence (ECL, Pierce), followed by exposure to x-ray film. To quantify phospho-JNKs, serial dilutions of anisomycin (1 μg/ml)-stimulated HEK-A cell lysates were used to ensure that all samples were in linear range. […]

MKK7-JNK3 module [3] = assay: JNK3 phosphorylation by co-expressed MKK7 in cells; assay type: cell-based, African green monkey; conditions: YFP-T1A co-expressed with MKK7 in COS7 cells
Method: as §2, §1, §3

| optimal concentration relative to full-length arrestin-3, MKK7-JNK3 module (MKK7-JNK3 module [2]) [times lower] | JNK3 phosphorylation level by MKK7 as a function of T1A concentration (MKK7-JNK3 module [2]; 50 nM MKK7, 1 μM JNK3α2, 10 sec, 30° C., synthetic purified peptide) | Substance | JNK3 phosphorylation in cells, YFP fusions [1] | JNK3 phosphorylation by MKK4 in cells (MKK4-JNK3 module) | JNK3 phosphorylation by MKK7 in cells (MKK7-JNK3 module [3]) | in cell JNK3α2 activation (phospho-JNK3 densitometry) ([1]; Example 2, YFP/Venus constructs with HA-ASK1, HA-JNK3α2 in COS7 cells) | effect on JNK3 phosphorylation compared with full-length arrestin-3 ([1]; YFP fusion co-expressed with JNK3 and ASK1 in COS7 cells) | dose-response curve of JNK3 phosphorylation ([1]; varying amounts of YFP-T1A with ASK1 and JNK3) |
| --- | --- | --- | --- | --- | --- | --- | --- | --- |
|  |  | MGDK-GTRVFKKASPNGKLTVYLGK (MGDKGTRVFKKASPNGKLTVYLGK; N-terminal MGDK; bovine) [B1A, homologous N-terminal peptide from arrestin-2, negative control] | does not function as a scaffold of ASK1-MKK4/7-JNK3 cascade in cells |  |  |  |  |  |
| ~10 | bell-shaped curves | MGEKPGTRVFKKSSPNCKLTVYLGK (bovine) [T1A, first 25 residues of arrestin-3] | also active | necessary and sufficient to promote the signaling | necessary and sufficient to promote the signaling | facilitates JNK3 activation | greater than that of full-length arrestin-3 | biphasic, with a clear optimum |

From US10369187B2, “Peptide regulators of JNK family kinases” (Vanderbilt University, priority 2017, dated 2019)
